From patent US20060229258A1, “Steroidal compositions containing hydroxycarboxylic acids and methods of using the same” (priority 2003, published 2006) come the findings set out here.

The series is described as follows: Thermal degradation of prednicarbate during preparation of the emulsion. The settings on record: in the emulsion during preparation. In kind it is physicochemical. The protocol:
In a particularly key aspect of the present inventive process, the emulsion is cooled from a temperature of about 55 to about 85° C. to a temperature of about 25 to about 45° C. before the prednicarbate is dispersed therein. This cooling step is particularly important because a substantial amount of prednicarbate degradation products will form at temperatures above 63° C. Accordingly, it is necessary to cool the emulsion before adding the prednicarbate to maintain the high prednicarbate purity and low amount of prednicarbate degradation products essential to the present inventive compositions.

For the compound `CCOC(=O)O[C@]1(C(=O)COC(=O)CC)CC[C@H]2[C@@H]3CCC4=CC(=O)C=C[C@]4(C)[C@H]3[C@@H](O)C[C@@]21C` [prednicarbate], the “temperatures at which a substantial amount of prednicarbate degradation products will form” value was “above 63 °C”.
